# Reference: patent US10813890B2, “Pharmaceutical combination” (Gruenenthal GmbH, priority 2010, dated 2020)
# Structures can show the parent of a compound that is named as a salt. Where two headings read alike, the source gives them in different places.
# Tested on: inflamed rat hind paw
# Experiment: Randall-Selitto test in rats (carrageenan-induced acute inflammation, mechanical nociceptive threshold)
# Conditions: for ED50: Rattus norvegicus, 0.25 h, read-out: ED50 (substance applied alone); for analgesic effect: i.p.; for analgesic effect / timepoint of peak effect: substance applied alone; for timepoint of peak effect: p. appl., timepoint of first measurement
SMILES,ED50 (ip) [mg/kg],analgesic effect,timepoint of peak effect [min],ED50 (iv) [mg/kg]
"CNC1(c2ccccc2Cl)CCCCC1=O (racemic) [ketamine hydrochloride, (R,S)-ketamine hydrochloride]",20.2,dose-dependent analgesic effect,15,
CC12CC3CC(C)(C1)CC(N)(C3)C2 [memantine hydrochloride],19.1,dose-dependent analgesic effect,15,
CC[C@@H](c1cccc(O)c1)[C@@H](C)CN(C)C [tapentadol hydrochloride],,,15,1.75
